Laboratory results taken from paper PMC10256634, “Comparative in vivo toxicokinetics of silver powder, nanosilver and soluble silver compounds after oral administration to rats” (Archives of Toxicology, 2023).
Values joined by “and” are separate entries in the source; they are usually repeats but may differ in a detail not shown here. Identical values can stand only once.

What was measured:
[1] = Total Ag content in tissues after 28 days repeated oral dosing (ICP-MS); type: in vivo, Sprague–Dawley rats
From the text: Comparative TK data for the various test items were obtained after single doses, and repeated dose administration for 28 days. This was based on measurement of Ag levels in whole blood at various timepoints, and also total Ag content in tissues (in the repeated dose study phase). This approach facilitated a direct quantitative comparison of parameters such as bioavailability, achieved systemic exposure and the delivered Ag dose to tissues after administration of the different Ag test items. Determination of single-dose p.o. and i.v. blood-level profiles was intended to provide information on absolute bioavailability (F value). Parallel vehicle control groups were included within each phase.
(§1) Following final blood sampling, animals were euthanised using carbon dioxide asphyxiation, with subsequent exsanguination, prior to macroscopic examination for the investigation of any abnormalities. Tissues for analysis of total Ag content were obtained from animals administered the test items for 28 days. The tissue set comprised: brain (whole), bone marrow (from both femurs), small intestine (duodenum/ileum/jejenum), liver, spleen, ovaries, testes (excluding epididymides) and uterus. The luminal contents of GI tract samples were thoroughly flushed out with cold purified water. After weighing, tissues were retained frozen (− 20 °C).
Analysis occurred within the 48-day assured stability period.
All bioanalytical methods underwent validation before deployment.

[2] = Clinical observations, bodyweight, organ weights and macroscopic examination; type: in vivo, Sprague–Dawley rats; details: repeated dose study, 175 mg AgAc/kg bw/d
Experimental: Animals were inspected visually at least twice daily for evidence of clinical signs or change in health status. As applicable, injection sites were regularly assessed post-dosing for any local reaction. Bodyweight was measured for all single-dose treatments before administration (typically the day before treatment), on the day of administration and on the day of termination. For the 28-day repeated administration phase, the bodyweight of each animal was recorded pre-treatment, on Day 1 of treatment and then at weekly intervals (including on the day of termination).
as §1

serum copper (Cu) levels = test: Serum Cu levels after 28 days repeated oral dosing (ICP-MS); details: for Serum Cu conc. % of Control group mean: mean (SD)
Experimental: Samples of whole blood (0.2 mL) were obtained from the jugular vein of animals, with lithium heparin integrated as an anticoagulant. […] Each sample was gently mixed and frozen on dry ice, pending transfer to storage at − 20 °C. […] Serum was obtained by centrifugation (10 min, 2000 RCF) and stored frozen until analysis.
Previous robust TK studies involving the analysis of Ag in biological matrices have utilised aggressive digestion techniques, typically based on digestion/mineralisation in concentrated HNO3 with microwave-accelerated reaction systems. To avoid subsequent precipitation of Ag into insoluble complexes and subsequent loss for analysis, sample stabilisation with an excess of chloride (e.g. HCl) is appropriate. These principles were adopted for sample processing in this investigation. In brief, each blood subsample (50 µL) was combined with 800 µL concentrated HNO3 (65–70%) in a glass pyrex tube. The contents were then digested in an Ultrawave (Milestone, Italy) digester using digestion programme ‘blood’. Afterwards, 800 μL HCl (37%) was added, and 400 μL of the HNO3/HCl digest was combined with 2.60 mL of rhodium internal standard followed by rotary mixing for at least 30 min. The processed sample was then analysed on an Agilent 7900 × inductively coupled plasma mass spectrometer (ICP-MS). […] The digestion was 20 min at elevated temperature and pressure (200 °C, 100 bar, 1500 W). Then, 3 parts of concentrated HCl (35–40%) were added, and the digest was stored at − 20 °C until analysis. A 50 µL subsample was subsequently mixed with 3.95 mL of rhodium internal standard and analysed by ICP-MS. Analysis occurred within the 48-day assured stability period.
All bioanalytical methods underwent validation before deployment. ICP-MS runs included quality control samples and a multilevel calibration. Lower limits of quantitation (LLOQ) for the analytical methods were, respectively, 10 ng/mL for total Ag in blood, 5 ng/mL for total Ag in tissue and 30 ng Cu/mL for Cu in serum.

[3] = 28 d oral 5 mg/kg bw/d [Ag equivalent 3.25 AgAc, 3.2 AgNO3]
[4] = 28 d oral 5 mg/kg bw/d [Ag equivalent 3.25 AgAc, 3.2 AgNO3], female
[5] = 28 d oral 5 mg/kg bw/d [Ag equivalent 3.25 AgAc, 3.2 AgNO3], male
[6] = 28 d oral 175 [114 Ag] mg/kg bw/d
[7] = 28 d oral 175 [114 Ag] mg/kg bw/d, female
[8] = 28 d oral 175 [114 Ag] mg/kg bw/d, male
[9] = 28 d oral 125 [80 Ag] mg/kg bw/d
[10] = 28 d oral 125 [80 Ag] mg/kg bw/d, female
[11] = 28 d oral 125 [80 Ag] mg/kg bw/d, male

SMILES: CC(=O)[O-].[Ag+] [AgAc, Silver(I) acetate]
- Silver level in ovary [1, 3]: 2197 ng Ag/g tissue
- Silver level in testis [1, 3]: 167 ng Ag/g tissue
- Silver level in uterus [1, 3]: 188 ng Ag/g tissue
- Silver level in GI tract [1, 4]: 3797 ng Ag/g tissue
- Silver level in bone marrow [1, 4]: 126 ng Ag/g tissue
- Silver level in brain [1, 4]: 169 ng Ag/g tissue
- Silver level in liver [1, 4]: 305 ng Ag/g tissue
- Silver level in spleen [1, 4]: 990 ng Ag/g tissue
- Silver level in GI tract [1, 5]: 2770 ng Ag/g tissue
- Silver level in bone marrow [1, 5]: 62 ng Ag/g tissue
- Silver level in brain [1, 5]: 142 ng Ag/g tissue
- Silver level in liver [1, 5]: 55.4 ng Ag/g tissue
- Silver level in spleen [1, 5]: 283 ng Ag/g tissue
- Silver level in ovary [1, 6]: 39668 ng Ag/g tissue
- Silver level in testis [1, 6]: 1531 ng Ag/g tissue
- Silver level in uterus [1, 6]: 11094 ng Ag/g tissue
- Silver level in GI tract [1, 7]: 103814 ng Ag/g tissue
- Silver level in bone marrow [1, 7]: 46761 ng Ag/g tissue
- Silver level in brain [1, 7]: 1455 ng Ag/g tissue
- Silver level in liver [1, 7]: 21872 ng Ag/g tissue
- Silver level in spleen [1, 7]: 141560 ng Ag/g tissue
- Silver level in GI tract [1, 8]: 83211 ng Ag/g tissue
- Silver level in bone marrow [1, 8]: 21373 ng Ag/g tissue
- Silver level in brain [1, 8]: 1458 ng Ag/g tissue
- Silver level in liver [1, 8]: 22660 ng Ag/g tissue
- Silver level in spleen [1, 8]: 96379 ng Ag/g tissue
- Ag in tissue concentrations, comparison between test items ([1]; 28 d oral, matched 35–36 mg Ag/kg bw/d, silver acetate vs nanosilver or silver powder, nanosilver vs silver powder (except spleen of male animals), p < 0.05): significantly higher in all tissues
- bodyweight [2]: slight depression in weight gain during Week 1

SMILES: O=[N+]([O-])[O-].[Ag+] [AgNO3, silver(I) nitrate]
- Silver level in ovary [1, 3]: 1484 ng Ag/g tissue
- Silver level in testis [1, 3]: 231 ng Ag/g tissue
- Silver level in uterus [1, 3]: 145 ng Ag/g tissue
- Silver level in GI tract [1, 4]: 2438 ng Ag/g tissue
- Silver level in bone marrow [1, 4]: 87 ng Ag/g tissue
- Silver level in brain [1, 4]: 177 ng Ag/g tissue
- Silver level in liver [1, 4]: 130 ng Ag/g tissue
- Silver level in spleen [1, 4]: 722 ng Ag/g tissue
- Silver level in GI tract [1, 5]: 1310 ng Ag/g tissue
- Silver level in bone marrow [1, 5]: 73 ng Ag/g tissue
- Silver level in brain [1, 5]: 142 ng Ag/g tissue
- Silver level in liver [1, 5]: 81.7 ng Ag/g tissue
- Silver level in spleen [1, 5]: 404 ng Ag/g tissue
- Silver level in ovary [1, 9]: 44025 ng Ag/g tissue
- Silver level in testis [1, 9]: 1464 ng Ag/g tissue
- Silver level in uterus [1, 9]: 22466 ng Ag/g tissue
- Silver level in GI tract [1, 10]: 14798 ng Ag/g tissue
- Silver level in bone marrow [1, 10]: 25200 ng Ag/g tissue
- Silver level in brain [1, 10]: 1019 ng Ag/g tissue
- Silver level in liver [1, 10]: 16024 ng Ag/g tissue
- Silver level in spleen [1, 10]: 62335 ng Ag/g tissue
- Silver level in GI tract [1, 11]: 10592 ng Ag/g tissue
- Silver level in bone marrow [1, 11]: 46553 ng Ag/g tissue
- Silver level in brain [1, 11]: 1091 ng Ag/g tissue
- Silver level in liver [1, 11]: 28859 ng Ag/g tissue
- Silver level in spleen [1, 11]: 54070 ng Ag/g tissue
- Serum Cu conc. % of Control group mean (serum copper (Cu) levels; 28 d oral 5 [3.2 Ag] mg/kg bw/d, female): 101 (10) % of Control group mean
- Serum Cu conc. % of Control group mean (serum copper (Cu) levels; 28 d oral 5 [3.2 Ag] mg/kg bw/d, male): 111 (25) % of Control group mean
- Serum Cu conc. % of Control group mean (serum copper (Cu) levels; 28 d oral 55 [35 Ag] mg/kg bw/d, female): 81 (11) % of Control group mean
- Serum Cu conc. % of Control group mean (serum copper (Cu) levels; 28 d oral 55 [35 Ag] mg/kg bw/d, male): 79 (13) % of Control group mean
- Serum Cu conc. % of Control group mean (serum copper (Cu) levels; [10]): 74 % of Control group mean and 74 (15) % of Control group mean
- Serum Cu conc. % of Control group mean (serum copper (Cu) levels; [11]): 62 % of Control group mean and 62 (12) % of Control group mean
- Effect on circulating Cu levels (serum copper (Cu) levels; 28 d oral, AgMP up to limit dose 1000 mg/kg bw/d, AgNO3 detectable at 55, statistically significant at 125 mg/kg bw/d): reduction in circulating Cu levels was observed
